The values below are quoted from earlier work in patent publication EP0454783B1, “SITE SPECIFIC IN-VIVO ACTIVATION OF THERAPEUTIC DRUGS” (Akzo Nobel N.V., priority 1989, dated 1990).

This series has as its target lysozyme (Gallus gallus, UniProt P00698). Particulars: Imoto et al, 1972.

Sequence of lysozyme (P00698 19-147): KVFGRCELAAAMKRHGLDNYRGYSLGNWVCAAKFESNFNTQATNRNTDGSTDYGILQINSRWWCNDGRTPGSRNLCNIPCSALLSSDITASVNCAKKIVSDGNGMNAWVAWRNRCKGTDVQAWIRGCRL

For `CC(=O)N[C@H]1[C@H](O[C@H]2[C@H](O)[C@@H](NC(C)=O)[C@H](O[C@H]3[C@H](O)[C@@H](NC(C)=O)C(O)O[C@@H]3CO)O[C@@H]2CO)O[C@H](CO)[C@@H](O[C@@H]2O[C@H](CO)[C@@H](O[C@@H]3O[C@H](CO)[C@@H](O[C@@H]4O[C@H](CO)[C@@H](O)[C@H](O)[C@H]4NC(C)=O)[C@H](O)[C@H]3NC(C)=O)[C@H](O)[C@H]2NC(C)=O)[C@@H]1O` (stereo partly shown) [chitohexaose], the “fold higher rate of cleavage by lysozyme than chitotriose” value is 30,000 fold.
